Laboratory results from PMC7071032, “In Vitro Inhibition of Hsp90 Protein by Benzothiazoloquinazolinequinones Is Enhanced in The Presence of Ascorbate. A Preliminary In Vivo Antiproliferative Study” (Molecules, 2020).
Where “and” joins values, the source holds several entries; their conditions need not be identical. Equal entries are not always repeated. Where two headings read alike, the source gives them in different places.

Tests used:
[1] = tested on: panel of cancer cells (T24, DU-145, MCF-7); test: MTT reduction assay, panel of cancer cells (means, ranges, selectivity index); type: cell-based, human; conditions: for IC50: Homo sapiens
Procedure: (§1) As positive control, two well-known anticancer drugs, namely TAM and 5-FU, were also tested on these cell lines. […] Regarding 5-FU, it is a broad-spectrum chemotherapeutic drug used to treat a variety of malignancies. Particularly, it has a long history of use against bladder tumors.
Such a selective index was calculated as the ratio between IC50 values of healthy cells/IC50 values in cancer cells.
(§2) Cells were seeded into 96-well plates at a density of 10,000 cells/well for 24 h and then incubated for 48 h with or without the quinone derivatives. […] The IC50 values were determined using the GraphPad Prism software (San Diego, CA, USA). Further incubation procedures and optical density reading of colored solutions were performed according to Benites et al..

T24 cells = test: Clonogenic assay; type: cell-based, human; conditions: for cell growth compared to control conditions (100%), in brackets / number of colony forming units (CFUs): T24 cells; for number of colony forming units (CFUs): 24 h treatment, 10 days growth
Procedure: Indeed, at a dose of 0.25 µM, it decreased from 195 to 72 the number of CFUs. Otherwise, it inhibits the proliferation of T24 cells by 63% as compared to the control untreated cells. […] The percentages of the observed cell growth compared to control conditions (100%) are indicated in brackets. […] Cells were allowed to adhere overnight, and then treated with quinones for 24 h. Afterward, they were washed with warm PBS, given fresh medium, and allowed to grow for 10 days. Clonogenic survival was determined by fixing and staining colonies using crystal violet and further counting their number. The number of colonies calculated under control conditions was set as 100%.

[2] = tested on: non-tumor fibroblasts AG 1523; test: MTT reduction assay, non-tumor fibroblasts; type: cell-based; conditions: Homo sapiens, AG1523, 48 h incubation, read-out: IC50 ± SEM AG 1523
Procedure: as §1
Cell culture conditions were the same as reported elsewhere. Briefly, cell lines were kept in DMEM containing 10% fetal calf serum. In addition, 100 U/mL of penicillin and 100 µg/mL streptomycin from Gibco (Grand Island, NY, USA) were further added. Cell cultures were kept at 37 °C under an atmosphere of 95% air/5% CO2 and 100% humidity. Sodium L-ascorbate, menadione (vitamin K3), TAM, and 5-FU were purchased from Sigma (St. Louis, MO, USA).
The cytotoxicity of the quinones was assessed by following the reduction of MTT (3-(4,5-dimethylthiazol-2-yl)-2,5-diphenyltetrazolium bromide) to formazan blue and the capability of cancer cells to proliferate, namely a clonogenic assay.
as §2

Hsp90 = test: Immunoblot of Hsp90 protein integrity in T24 cells; type: cell-based, human; conditions: 5 µM quinone plus 1 mM ascorbate, 4 h
Procedure: Nevertheless, when incubation was done in the presence of 1 mM ascorbate (vitamin C) plus quinones (including menadione), a new peptide fragment of about 70 kD was detected by the antibody against Hsp90.
Figure 1 Effects of selected quinones of Hsp90 (A) and poly(ADPribose)polymerase (PARP) (B) protein integrity in T24 cells. Cancer cells were incubated for 4 h with 5 µM menadione (K3), 15, 16, 19, or 20 either in the absence or in the presence of 1 mM ascorbate (Asc). Ctl represents control untreated cells. * p < 0.05 as compared to control conditions.
Cancer cells were incubated for 4 h in the absence and in the presence of compounds. Afterward, cells were washed twice with ice-cold PBS and then resuspended in RIPA lysis buffer supplemented with 1% protease inhibitor cocktail (Sigma–Aldrich, St. Louis, MO, USA) and 3% phosphatase inhibitor cocktail (Calbiochem, Darmstadt, Germany). Treatment of samples and electrophoresis conditions were conducted as previously reported. Mouse monoclonal primary antibodies against hsp90α/β C-terminus (F8), and against β-actin (clone AC-15), were purchased from Santa Cruz Biotechnology (Santa Cruz, CA, USA) and from Abcam (Cambridge, UK), respectively. Rabbit polyclonal antibodies against PARP were purchased from BD Biosciences (San Diego, CA, USA). […]

Compound: Cc1ccc2c(c1)SC1=NC3=C(C(=O)c4ccccc4C3=O)C(C)(O)N12 (stereo not drawn) [Compound 15]
- IC50 ([1]; read-out: IC50 values on the panel of cancer cells (range over cell lines)): 110 to 1770 nM
- IC50 ([1]; read-out: mean IC50 value calculated from the individual IC50 values of the three cancer cell lines): 1100 to 1610 nM
- MSI: mean selective index ([1]; IC50 values of fibroblasts (AG 1523)/IC50 values of tumor cells (T24, DU-145, MCF-7)): 29.4
- inhibition at 0.25 µM (T24 cells; Homo sapiens, T-24, clonogenic assay, 0.25 µM, read-out: inhibition of the proliferation of T24 cells as compared to control untreated cells): 63%
- cell growth compared to control conditions (100%), in brackets (T24 cells; 0.025 µM): 92%
- number of colony forming units (CFUs) (T24 cells; 0.025 µM): 180 ± 11 CFUs
- cell growth compared to control conditions (100%), in brackets (T24 cells; 0.125 µM): 83%
- number of colony forming units (CFUs) (T24 cells; 0.125 µM): 162 ± 18 CFUs
- cell growth compared to control conditions (100%), in brackets (T24 cells; 0.25 µM): 37%
- number of colony forming units (CFUs) (T24 cells; 0.25 µM): 72 CFUs and 72 ± 5 CFUs
- cell growth compared to control conditions (100%), in brackets (T24 cells; 1.25 µM): 11%
- number of colony forming units (CFUs) (T24 cells; 1.25 µM): 22 ± 9 CFUs
- cell growth compared to control conditions (100%), in brackets (T24 cells; 2.5 µM): 8%
- number of colony forming units (CFUs) (T24 cells; 2.5 µM): 16 ± 3 CFUs
- cell growth compared to control conditions (100%), in brackets (T24 cells; 5.0 µM): 1%
- number of colony forming units (CFUs) (T24 cells; 5.0 µM): 2 ± 1 CFUs
- IC50 [2]: 32300 ± 3310 nM
- Hsp90 protein cleavage (Hsp90): induced an oxidative cleavage of Hsp90
